Consider 25 compounds from ChEMBL document CHEMBL1140931, “Discovery of the first selective inhibitor of excitatory amino acid transporter subtype 1” (J Med Chem, 2009).

Assay [1] has as its target Excitatory amino acid transporter 2 (Homo sapiens, UniProt P43004). Put plainly: Displacement of [3H]D-Asp from human EAAT2 receptor expressed in HEK293 cells.
In assay [2] the target is T1, Excitatory amino acid transporter 1 (Homo sapiens, UniProt P43003). Put plainly: Displacement of [3H]D-Asp from human EAAT1 receptor expressed in HEK293 cells. For orientation: Loss of bound radioactivity is the signal in a displacement assay; it reports binding, not function.
T1 sequence (P43003 whole entry): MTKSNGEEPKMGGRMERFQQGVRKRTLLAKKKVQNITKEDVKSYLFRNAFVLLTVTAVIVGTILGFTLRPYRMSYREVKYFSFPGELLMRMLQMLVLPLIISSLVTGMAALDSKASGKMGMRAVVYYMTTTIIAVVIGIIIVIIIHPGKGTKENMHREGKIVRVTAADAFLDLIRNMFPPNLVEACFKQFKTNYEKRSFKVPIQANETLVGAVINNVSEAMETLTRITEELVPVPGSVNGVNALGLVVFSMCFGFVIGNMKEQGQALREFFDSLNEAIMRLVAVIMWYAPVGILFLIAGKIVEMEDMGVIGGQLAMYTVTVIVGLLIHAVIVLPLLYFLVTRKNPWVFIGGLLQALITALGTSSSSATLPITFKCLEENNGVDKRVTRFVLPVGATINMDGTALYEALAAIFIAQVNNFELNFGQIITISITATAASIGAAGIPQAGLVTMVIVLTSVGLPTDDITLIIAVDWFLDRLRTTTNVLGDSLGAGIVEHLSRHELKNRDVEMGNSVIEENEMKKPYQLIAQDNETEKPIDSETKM
Assay [3] concerns the target T2, Excitatory amino acid transporter 3 (Homo sapiens, UniProt P43005).
T2 sequence (P43005 whole entry): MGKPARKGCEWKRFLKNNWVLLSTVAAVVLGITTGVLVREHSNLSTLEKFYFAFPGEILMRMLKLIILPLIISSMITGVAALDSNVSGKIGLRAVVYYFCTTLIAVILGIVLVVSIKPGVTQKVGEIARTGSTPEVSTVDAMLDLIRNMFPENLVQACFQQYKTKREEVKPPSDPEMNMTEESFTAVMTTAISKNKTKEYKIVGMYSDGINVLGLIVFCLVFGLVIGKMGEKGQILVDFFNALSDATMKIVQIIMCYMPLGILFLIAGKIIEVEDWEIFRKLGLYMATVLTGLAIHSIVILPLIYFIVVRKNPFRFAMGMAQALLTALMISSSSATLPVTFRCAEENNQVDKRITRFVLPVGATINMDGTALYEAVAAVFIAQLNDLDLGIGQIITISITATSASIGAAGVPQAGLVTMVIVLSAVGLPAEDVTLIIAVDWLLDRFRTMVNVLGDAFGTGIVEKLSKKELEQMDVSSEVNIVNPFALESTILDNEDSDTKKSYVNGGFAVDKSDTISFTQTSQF
Put plainly: Displacement of [3H]D-Asp from human EAAT3 receptor expressed in HEK293 cells.

The target in assay [4] is T3, Excitatory amino acid transporter 1 (Rattus norvegicus, UniProt P24942).
T3 sequence (P24942 whole entry): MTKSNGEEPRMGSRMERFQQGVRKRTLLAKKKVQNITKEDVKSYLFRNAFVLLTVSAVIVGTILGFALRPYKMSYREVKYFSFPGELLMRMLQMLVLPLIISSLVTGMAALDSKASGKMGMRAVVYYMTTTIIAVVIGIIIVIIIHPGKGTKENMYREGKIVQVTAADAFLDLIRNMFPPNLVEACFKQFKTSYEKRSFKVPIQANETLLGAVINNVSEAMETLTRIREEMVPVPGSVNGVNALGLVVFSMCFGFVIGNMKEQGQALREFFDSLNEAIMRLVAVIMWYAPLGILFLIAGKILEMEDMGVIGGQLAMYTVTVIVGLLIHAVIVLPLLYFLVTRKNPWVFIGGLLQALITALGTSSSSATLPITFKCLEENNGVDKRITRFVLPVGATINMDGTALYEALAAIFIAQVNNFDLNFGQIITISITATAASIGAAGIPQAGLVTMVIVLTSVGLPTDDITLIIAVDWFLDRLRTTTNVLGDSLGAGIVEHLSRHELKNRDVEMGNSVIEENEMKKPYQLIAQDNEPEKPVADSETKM
Put plainly: Activity at rat EAAT1 expressed in TSA201 cells assessed as inhibition of Glu-induced fluorescent response by FLIPR membrane potential blue assay. The class given is cell-based.

In assay [5] the target is T1, Excitatory amino acid transporter 1. Put plainly: Activity of human EAAT1 expressed in HEK293 cells up to 100 uM. The class given is cell-based.
Assay [6] has as its target T4, Excitatory amino acid transporter 3 (Homo sapiens) (UniProt P43005).
T4 sequence (whole entry): T2 sequence (P43005 whole entry)
Put plainly: Activity of human EAAT3 expressed in HEK293 cells up to 100 uM. The assay is classed as cell-based.

Assay [7] deals with T1, Excitatory amino acid transporter 1. Put plainly: Activity at human EAAT1 expressed in HEK293 cells assessed as inhibition of Glu-induced fluorescent response by FLIPR membrane potential blue assay.

Each structure is given as a SMILES string. pIC50: −log10 of the molar value. The source made the active and inactive calls. The rule behind the calls is not given here.

Excitatory amino acid transporter 2, sequence (P43004 whole entry): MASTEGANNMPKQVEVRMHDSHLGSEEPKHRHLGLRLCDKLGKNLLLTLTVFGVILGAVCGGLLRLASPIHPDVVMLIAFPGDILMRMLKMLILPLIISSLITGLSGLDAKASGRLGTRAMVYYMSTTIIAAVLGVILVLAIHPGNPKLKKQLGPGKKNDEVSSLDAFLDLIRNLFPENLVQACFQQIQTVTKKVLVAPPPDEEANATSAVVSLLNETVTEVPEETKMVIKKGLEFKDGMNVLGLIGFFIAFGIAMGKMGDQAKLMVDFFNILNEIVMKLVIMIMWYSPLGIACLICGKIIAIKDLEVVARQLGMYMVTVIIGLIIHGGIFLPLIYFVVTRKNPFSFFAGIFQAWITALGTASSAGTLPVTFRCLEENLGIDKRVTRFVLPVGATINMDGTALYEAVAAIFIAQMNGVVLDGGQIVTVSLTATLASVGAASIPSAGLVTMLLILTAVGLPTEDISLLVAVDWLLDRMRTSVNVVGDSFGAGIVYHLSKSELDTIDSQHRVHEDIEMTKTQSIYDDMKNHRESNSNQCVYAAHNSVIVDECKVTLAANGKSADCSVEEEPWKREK

For orientation: pIC50 means the IC50 on a negative log10 scale, so that one unit is a factor of ten. Take `N#CC1=C(N)OC2=C(C1)C(=O)CC(c1ccccc1)C2` (centres undefined): the pIC50 in assay [1] was < 3.50; in assay [2], < 3.52; in assay [3], < 3.50.

With `COc1ccc(C2C(C#N)=C(N)OC3=C2C(=O)CC(c2ccccc2Cl)C3)cc1` (centres undefined), the pIC50 in assay [1] was < 3.50; in assay [2] it was 5.49; in assay [3], < 3.50.

Consider `N#CC1=C(N)OC2=C(C(=O)CC(c3ccccc3)C2)C1c1ccc([N+](=O)[O-])cc1` (centres undefined), for which the pIC50 in assay [1] is < 4.00; in assay [2] it was 5.44; in assay [3] it was < 4.00.

As for `COc1cccc(C2C(C#N)=C(N)OC3=C2C(=O)CC(c2ccccc2)C3)c1OC` (centres undefined), the results for the pIC50 in assay [1], in assay [2] and in assay [3] were < 4.00, ~4.30 and < 4.00, respectively.

Take `N#CC1=C(N)OC2=C(C(=O)CC(c3ccccc3)C2)C1c1cccs1` (centres undefined): the pIC50 in assay [1] is < 4.00; in assay [2], 4.85; in assay [3], < 4.00.

Regarding `CC1CC(=O)C2=C(C1)OC(N)=C(C#N)C2c1ccc2c(c1)OCO2` (centres undefined), the values for the pIC50 in assay [1], in assay [2] and in assay [3] were < 3.50, < 3.52 and < 3.50, respectively.

On to `COc1ccc(C2C(C#N)=C(N)OC3=C2C(=O)CC(c2ccco2)C3)cc1OC(=O)N1CCOCC1` (centres undefined), for which the figures for the pIC50 in assay [1], in assay [2] and in assay [3] were < 3.50, 4.00 and < 3.50, respectively.

Consider `N#CC1=C(N)OC2=C(C(=O)CC(c3ccccc3)C2)C1c1ccc2c(c1)OCO2` (centres undefined), for which the results for the pIC50 in assay [1], in assay [2] and in assay [3] were < 3.50, 5.40 and < 3.50, respectively.

In the case of `N#CC1=C(N)OC2=C(C(=O)CC(c3ccccc3)C2)C1c1cccnc1` (centres undefined), the pIC50 in assay [1] is < 3.50; in assay [2] it was 4.52; in assay [3] it was < 3.50.

On to `N#CC1=C(N)OC2=C(C(=O)CC(c3ccccc3)C2)C1c1cc(Br)cs1` (centres undefined), for which the pIC50 is < 4.00 in assay [1], 5.33 in assay [2] and < 4.00 in assay [3].

Take `N#CC1=C(N)OC2=C(C(=O)CC(c3ccccc3)C2)C1c1cccc2ccccc12` (centres undefined): the figures for the pIC50 in assay [1], in assay [2] and in assay [3] were < 4.00, 5.13 and < 4.00, respectively.

In the case of `N#CC1=C(N)OC2=C(C(=O)CC(c3ccccc3)C2)C1c1c[nH]c2ccccc12` (centres undefined), the pIC50 in assay [1], in assay [1] (hek293), in assay [2], in assay [3] and in assay [3] (hek293) was < 4.00 throughout.

Turning to `COc1cc(C2C(C#N)=C(N)OC3=C2C(=O)CC(c2ccccc2)C3)ccc1OCc1c(F)cccc1Cl` (centres undefined), the pIC50 in assay [1] is < 4.00; in assay [2], 5.37; in assay [3] it was < 4.00.

Take `N#CC1=C(N)OC2=C(C(=O)CC(c3ccccc3)C2)C1c1ccc(-c2ccccc2)cc1` (centres undefined): the pIC50 in assay [1] is < 4.00; in assay [2] it was 5.68; in assay [3] it was < 4.00.

As to `N#CC1=C(N)OC2=C(C(=O)CC(c3ccccc3)C2)C1c1ccc2ccccc2c1` (centres undefined), the figures for the pIC50 in assay [1], in assay [2] and in assay [3] were < 4.00, 5.44 and < 4.00, respectively.

On to `N#CC1=C(N)OC2=C(C(=O)CC(c3ccccc3)C2)C1Cc1ccccc1` (centres undefined), for which the values for the pIC50 in assay [1], in assay [2] and in assay [3] were < 4.00, 4.52 and < 4.00, respectively.

Regarding `N#CC1=C(N)OC2=C(C(=O)CC(c3ccco3)C2)C1c1ccccc1` (centres undefined), the pIC50 in assay [1] was < 3.50; in assay [2], 5.14; in assay [3], < 3.50.

For the compound `N#CC1=C(N)OC2=C(C(=O)CC(c3ccccc3)C2)C1c1ccccc1F` (centres undefined), the pIC50 was < 4.00 in assay [1], 5.33 in assay [2] and < 4.00 in assay [3].

For the compound `COc1ccc(C2C(C#N)=C(N)OC3=C2C(=O)CC(c2cccc4ccccc24)C3)cc1` (centres undefined), the pIC50 in assay [4] is 6.01; in assay [1] it was < 3.50; in assay [2], 6.18; in assay [3], < 3.50; in assay [7] it was 6.92. Further, the outcome in assay [5] and in assay [6] was inactive.

As to `N[C@@H](COS(=O)(=O)O)C(=O)O`, the pIC50 in assay [2] and in assay [3] was 4.00 in each case.

`CSc1ccc(C2C(C#N)=C(N)OC3=C2C(=O)CC(c2ccccc2)C3)cc1` (centres undefined): the pIC50 in assay [1] is < 4.00; in assay [2] it was 5.57; in assay [3], < 4.00.

As for `COc1ccc(C2C(C#N)=C(N)OC3=C2C(=O)CC(c2ccccc2)C3)cc1` (centres undefined), the pIC50 in assay [1] and in assay [3] was < 4.00 in each case.

For the compound `N#CC1=C(N)OC2=C(C(=O)CCC2)C1c1ccccc1F` (centres undefined), the pIC50 is < 3.50 in assay [1], < 3.52 in assay [2] and < 3.50 in assay [3].

On to `CC1C(C#N)=C(N)OC2=C1C(=O)CC(c1ccccc1)C2` (centres undefined), for which the pIC50 in assay [1] was < 3.50; in assay [2], 5.04; in assay [3] it was < 3.50.

Regarding `N#CC1=C(N)OC2=C(C(=O)CC(c3cccs3)C2)C1c1ccc([N+](=O)[O-])cc1` (centres undefined), the pIC50 in assay [1] was < 3.50; in assay [2], 5.00; in assay [3] it was < 3.50.
